Molecules are shown by their SMILES. Values after ≈ are worked out from the molar mass of the structure shown.

The conditions of the data set: for solubility: 25 °C.

A word on the logP: it is the decadic logarithm of the partition coefficient of the neutral form, usually between octanol and water. High values mean higher lipophilicity, low ones lower lipophilicity. `CC(C)OC(=O)COc1ccc(C=O)cc1` returned a logP of 1.88. Broadly, the solubility is the concentration that dissolves in the medium under given conditions. The compound `O=Cc1ccc(O)c(Br)c1` gave a logP of 1.83 and a solubility of 6.62 mM (≈ 1330 µg/mL). For the compound `O=Cc1cccc(O)c1`, the log partition coefficient (logP) was 1.29. Compound `CCOc1ccc(C=O)cc1OC` had a lipophilicity (logP) of 1.63. `O=Cc1ccc(O)cc1` returned a solubility of 106 mM (≈ 12900 µg/mL). In other words, the millimolar range. On to `O=Cc1cc(O)ccc1O`, for which the log partition coefficient (logP) amounted to 0.54 and the solubility turned out to be 99.9 mM (≈ 13800 µg/mL). In the same order, the values of `O=Cc1cc(Br)ccc1Br` are 3.35 and 0.158 mM (≈ 41.8 µg/mL). The compound `COc1cc(C=O)cc(OC)c1OC` showed a logP of 1.39. Turning to `O=Cc1cc(O)cc(Br)c1`, the lipophilicity (logP) is 2.5 and the solubility worked out at 0.562 mM (≈ 113 µg/mL). Compound `COc1ccc(C=O)cc1OC` yielded a solubility of 38 mM (≈ 6320 µg/mL).

In turn, `O=Cc1ccc(O)c(O)c1` registered a logP of 1.09.

The compound `COc1ccc(OC)c(C=O)c1` showed a log partition coefficient (logP) of 1.91 and a solubility of 4.78 mM (≈ 795 µg/mL).
